This is an account of results in ChEMBL document CHEMBL5725763, “Factor XIa inhibitors” (2018).

Coagulation factor XI, sequence (P03951 19-387 limits assumed): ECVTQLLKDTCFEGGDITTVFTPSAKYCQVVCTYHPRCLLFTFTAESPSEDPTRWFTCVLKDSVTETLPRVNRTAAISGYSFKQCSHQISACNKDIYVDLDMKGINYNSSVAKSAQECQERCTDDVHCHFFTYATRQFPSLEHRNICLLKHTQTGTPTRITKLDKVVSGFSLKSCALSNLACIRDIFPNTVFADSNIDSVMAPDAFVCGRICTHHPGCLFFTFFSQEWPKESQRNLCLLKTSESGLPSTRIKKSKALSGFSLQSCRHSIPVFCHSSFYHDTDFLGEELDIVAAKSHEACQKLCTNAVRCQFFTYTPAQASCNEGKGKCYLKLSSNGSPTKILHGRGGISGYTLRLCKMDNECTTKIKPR
Coagulation factor XI, sequence (P03951 388-625 limits assumed): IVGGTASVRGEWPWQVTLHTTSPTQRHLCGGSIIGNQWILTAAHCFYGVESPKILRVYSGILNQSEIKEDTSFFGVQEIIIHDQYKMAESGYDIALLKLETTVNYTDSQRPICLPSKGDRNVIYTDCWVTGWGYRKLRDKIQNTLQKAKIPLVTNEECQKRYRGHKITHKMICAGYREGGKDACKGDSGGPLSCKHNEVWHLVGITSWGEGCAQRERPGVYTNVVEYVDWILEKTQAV

The experiment has as its target Coagulation factor XI (Homo sapiens, UniProt P03951). Put plainly: Factor XIa Assay: The effectiveness of a compound of the present invention as an inhibitor of Coagulation Factor XIa can be determined using a relevant purified serine protease, and an appropriate synthetic substrate. The rate of hydrolysis of the chromogenic or fluorogenic substrate by the relevant serine protease was measured both in the absence and presence of compounds of the present invention. Assays were conducted at room temperature or at 37° C. […] A decrease in the rate of fluorescence change in the presence of inhibitor is indicative of enzyme inhibition. Such methods are known to one skilled in the art. […] Times required to achieve equilibration between enzyme and inhibitor were determined in control experiments. Initial velocities of product formation in the absence (Vo) or presence of inhibitor (Vi) were measured. Assuming competitive inhibition, and that unity is negligible compared Km/[S], [I]/e, and [I]/e (where [S], [I], and e respectively represent the total concentrations, of substrate, inhibitor and enzyme), the equilibrium constant (Ki) for dissociation of the inhibitor from the enzyme can be obtained from the dependence of Vo/Vi on [I] shown in the following equation. V o /V i=1+[I]/K iThe activities shown by this assay indicate that the compounds of the invention may be therapeutically useful for treating or preventing various cardiovascular and/or cerebrovascular thromboembolic conditions in patients suffering from unstable angina, acute coronary syndrome, refractory angina, myocardial infarction, transient ischemic attacks, atrial fibrillation, stroke such as thrombotic stroke or embolic stroke, venous thrombosis, coronary and cerebral arterial thrombosis, cerebral and pulmonary embolism, atherosclerosis, deep vein thrombosis, disseminated intravascular coagulation, and reocclusion or restenosis of recanalized vessels.
Turning to `COC(=O)Nc1ccc2c(N[C@@H](Cc3ccccc3)C(=O)N3CCC[C@@]4(C3)OC(=O)Nc3ccc(Cl)cc34)nn(C)c2c1`, the Ki is 8.2 µM.
Then `COC(=O)Nc1ccc2c(N[C@@H](Cc3ccccc3)C(=O)N3CCC[C@@]4(C3)OC(=O)Nc3ccc(Cl)cc34)noc2c1`, with 0.523 µM; and `Nc1ccc(-c2c[nH]c(C(Cc3ccccc3)C(=O)N3CCC[C@@]4(C3)OC(=O)Nc3ccc(Cl)c(F)c34)n2)cn1` (some centres undefined), with 0.353 µM.
Take `CC(=O)Nc1ccc(N[C@@H](Cc2ccccc2)C(=O)N2CCC[C@@]3(C2)OC(=O)Nc2ccc(Cl)cc23)cc1`: the Ki amounted to 10 µM.

As usually defined, the Ki is a dissociation constant, usually derived from enzyme kinetics or from competition with a known ligand.
